Consider two compounds from US20230266309A1, “PROTEIN MICROARRAY, USE AND DETECTION METHOD THEREOF” (NATIONAL CHENG KUNG UNIVERSITY, priority 2021, published 2023).

For the test, the target named is T1, S proteins of wild-type SARS-CoV-2 virus and the SARS-CoV-2 D614G, B.1.1.7, B.1.351, P1, B.1.617, B.1.617.1, B.1.617.2, and B.1.617.3 variants (Homo sapiens, UniProt Q9BYF1).
T1 construct: purchased Sino Biological Inc. (Mainland China)
Type of test: binding. The conditions noted are these: FIG. 10; for ACE2 binding to the S protein: SARS-CoV-2 B.1.617.3 variant (excepted from the dose-dependent decrease); for ACE2 binding to the S proteins: wild-type and D614G, B.1.1.7, B.1.351, P1, B.1.617, B.1.617.1, B.1.617.2 variants.

T1 sequence (Q9BYF1 18-740, stated change not applied): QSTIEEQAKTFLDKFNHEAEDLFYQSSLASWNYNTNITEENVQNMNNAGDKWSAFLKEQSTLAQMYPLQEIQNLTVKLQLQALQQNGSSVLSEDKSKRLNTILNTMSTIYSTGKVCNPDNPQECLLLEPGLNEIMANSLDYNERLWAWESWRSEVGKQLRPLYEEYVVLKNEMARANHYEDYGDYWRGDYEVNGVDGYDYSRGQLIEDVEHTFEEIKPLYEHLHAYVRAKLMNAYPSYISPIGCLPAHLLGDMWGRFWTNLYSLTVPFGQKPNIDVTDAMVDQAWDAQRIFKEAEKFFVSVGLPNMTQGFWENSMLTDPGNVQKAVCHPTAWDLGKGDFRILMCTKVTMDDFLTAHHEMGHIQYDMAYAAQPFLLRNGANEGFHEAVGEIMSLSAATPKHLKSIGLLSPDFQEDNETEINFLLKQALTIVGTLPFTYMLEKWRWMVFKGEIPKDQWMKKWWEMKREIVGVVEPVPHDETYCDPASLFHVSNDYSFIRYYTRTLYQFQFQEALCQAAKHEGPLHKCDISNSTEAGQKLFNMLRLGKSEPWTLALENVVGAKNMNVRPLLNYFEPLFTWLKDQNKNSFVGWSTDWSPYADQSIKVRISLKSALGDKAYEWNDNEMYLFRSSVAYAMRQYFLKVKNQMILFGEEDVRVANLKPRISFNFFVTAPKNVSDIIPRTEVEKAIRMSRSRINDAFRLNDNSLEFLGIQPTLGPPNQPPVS

Consider `CCOC(=O)[C@H](CCc1ccccc1)N[C@@H](C)C(=O)N1[C@H](C(=O)O)C[C@@H]2CCC[C@@H]21` [Ramipril], for which the “ACE2 binding to the S protein” value is given as “except for the SARS-CoV-2 B.1.617.3 variant” and the “ACE2 binding to the S proteins” value is reported as “dose-dependently decrease”.
For `CCC[C@H](N[C@@H](C)C(=O)N1[C@H](C(=O)O)C[C@@H]2CCCC[C@@H]21)C(=O)OCC` [Perindopril], in that order: “except for the SARS-CoV-2 B.1.617.3 variant” and “dose-dependently decrease”.
